Laboratory results published in patent US20260327225A1, “HETEROCYCLIC COMPOUNDS AS TRIGGERING RECEPTOR EXPRESSED ON MYELOID CELLS 2 AGONISTS AND METHODS OF USE” (VIGIL NEUROSCIENCE, INC., priority 2023, published 2026).

biological target: T1, human TREM2 (Homo sapiens, UniProt Q9NZC2); experiment: TREM2 agonist potency by cellular phosphorylation of Syk (AlphaLisa) in HEK293T-hTREM2 cells expressing human TREM2 and DAP12; assay type: cell-based; conditions: HEK293 cells expressing hTREM2 and DAP12; 45 minutes at room temperature; Syk phosphorylation, AlphaLisa; read-out: hTREM2 EC50
T1 construct: expressed in transfected cells; host or cells: HEK293T-hTREM2 cells (HEK cell line expressing human TREM2 and DAP12)
Experimental: In vitro Measurement of Triggering Receptor Expressed on Myeloid Cells 2 activity using cellular phosphorylation of Spleen Tyrosine Kinase (“Syk”) Assays
Measurement of TREM2 agonist potency was done using a HEK cell line expressing human TREM2 and DAP12 (HEK293T-hTREM2 cells). Binding of small molecules to, and activation of, TREM2 increases the phosphorylation of Syk. The resultant levels of Syk phosphorylation are measured using a commercial AlphaLisa reagent kit. To perform the assay, HEK-hTREM2 cells were plated at 14,000 cells per well in a 384 well plate, in 25 μL of complete growth media and incubated at 37° C., 5% CO2 for 20-24 hours.
Prior to the assay, test compounds were diluted in the 384 well plates in assay buffer and allowed to equilibrate for 30 minutes. Growth media was removed from cell plates by inversion on blotting paper, and 25 μL of test articles in assay buffer was added to cells. Cells were incubated for 45 minutes at room temperature. After 45 minutes, assay buffer was removed and 10 μL of lysis buffer was added. Plates were shaken for 20 minutes at 350 RPM at room temperature. After complete lysis, AlphaLisa reagents were added to the lysate, and fluourescence intensity was measured using a Perkin Elmer Envision plate reader. Intensities were used to generate a standard curve, and % activation was calculated. Curve fitting was performed using Prism v9 software, log(agonist) vs response—variable slope (four parameters), and EC50s were calculated from the curve fit.
The results presented in Table B have been generated with the in vitro assay described above. This assay may be used to test any of the compounds described herein to assess and characterize a compound's ability to act as an agonist of TREM2.

T1 sequence (Q9NZC2 19-230): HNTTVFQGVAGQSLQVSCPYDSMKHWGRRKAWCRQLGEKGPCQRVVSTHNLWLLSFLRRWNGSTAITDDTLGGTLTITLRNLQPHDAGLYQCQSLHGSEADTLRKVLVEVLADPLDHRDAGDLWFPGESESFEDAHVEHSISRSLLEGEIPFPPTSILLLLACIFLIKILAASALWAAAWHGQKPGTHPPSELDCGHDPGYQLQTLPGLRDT
T1 sequence (O43914 22-113 partner): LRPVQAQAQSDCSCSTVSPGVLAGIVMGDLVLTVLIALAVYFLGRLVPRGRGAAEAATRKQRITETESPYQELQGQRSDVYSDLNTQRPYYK

Row | EC50 [nM] | SMILES
1 | < 100 | Cc1nnc(-c2cc3c(-c4ccc(F)cc4F)nc(N4C[C@@H](C)O[C@@H](c5cnn(C6CC6)c5)C4)nc3nc2C)s1 [Example 10, (2S,6R)-2-(1-cyclopropylpyrazol-4-yl)-4-[4-(2,4-difluorophenyl)-7-methyl-6-(5-methyl-1,3,4-thiadiazol-2-yl)pyrido[2,3-d]pyrimidin-2-yl]-6-methyl-morpholine]
2 | < 100 | Cc1nnc(-c2cc3c(-c4ccc(F)cc4F)nc(N4C[C@@H](C)O[C@@H](c5cnn(C6CC6)c5)C4)nc3nc2C)o1 [Example 12, (2S,6R)-2-(1-cyclopropylpyrazol-4-yl)-4-[4-(2,4-difluorophenyl)-7-methyl-6-(5-methyl-1,3,4-oxadiazol-2-yl)pyrido[2,3-d]pyrimidin-2-yl]-6-methyl-morpholine]
3 | > 500 | Cc1noc(-c2cc3c(-c4ccc(F)cc4F)nc(N4CCCC(N5CCOCC5)C4)nc3nc2C)n1 (stereo not drawn) [Example 15, 4-[1-[4-(2,4-difluorophenyl)-7-methyl-6-(3-methyl-1,2,4-oxadiazol-5-yl)pyrido[2,3-d]pyrimidin-2-yl]-3-piperidyl]morpholine]
4 | < 100 | Cc1nc2nc(N3C[C@@H](C)O[C@@H](c4cnn(C5CC5)c4)C3)nc(-c3ccc(F)cc3F)c2cc1C#N [Example 21, 2-[(2S,6R)-2-(1-cyclopropylpyrazol-4-yl)-6-methyl-morpholin-4-yl]-4-(2,4-difluorophenyl)-7-methyl-pyrido[2,3-d]pyrimidine-6-carbonitrile]
5 | < 100 | Cc1nnc(-c2cc3c(C45CC(C(F)(F)F)(C4)C5)nc([C@H]4CCO[C@@H](c5cnn(C6CC6)c5)C4)nc3nc2C)o1 [Example 23, 2-(2-((2R,4S)-2-(1-cyclopropyl-1H-pyrazol-4-yl)tetrahydro-2H-pyran-4-yl)-7-methyl-4-(3-(trifluoromethyl)bicyclo[1.1.1]pentan-1-yl)pyrido[2,3-d]pyrimidin-6-yl)-5-methyl-1,3,4-oxadiazole]
6 | < 100 | Cc1nc2nc([C@H]3CCO[C@@H](c4cnn(C5CC5)c4)C3)nc(C34CC(C(F)(F)F)(C3)C4)c2cc1F [Example 24, 2-[(2R,4S)-2-(1-cyclopropylpyrazol-4-yl)tetrahydropyran-4-yl]-6-fluoro-7-methyl-4-[3-(trifluoromethyl)-1-bicyclo[1.1.1]pentanyl]-pyrido[2,3-d]pyrimidine]
7 | < 100 | Cc1nc2nc([C@H]3CCO[C@@H](c4cnn(C5CC5)c4)C3)nc(C34CC(C(F)(F)F)(C3)C4)c2cc1-c1cnn(C)c1 [Example 26, 2-((2R,4S)-2-(1-cyclopropyl-1H-pyrazol-4-yl)tetrahydro-2H-pyran-4-yl)-7-methyl-6-(1-methyl-1H-pyrazol-4-yl)-4-(3-(trifluoromethyl)bicyclo[1.1.1]pentan-1-yl)pyrido[2,3-d]pyrimidine]
8 | < 100 | Cc1nc2nc([C@H]3CCO[C@@H](c4cnn(C5CC5)c4)C3)nc(C34CC(C(F)(F)F)(C3)C4)c2cc1C#N [Example 29, 2-[(2R,4S)-2-(1-cyclopropylpyrazol-4-yl)tetrahydropyran-4-yl]-7-methyl-4-[3-(trifluoromethyl)-1-bicyclo[1.1.1]pentanyl]pyrido[2,3-d]pyrimidine-6-carbonitrile]
9 | < 100 | Cc1nc2nc([C@H]3CCO[C@@H](c4cnn(C5CC5)c4)C3)nc(C34CC(C(F)(F)F)(C3)C4)c2cc1S(C)(=O)=O [Example 31, 2-[(2R,4S)-2-(1-cyclopropylpyrazol-4-yl)tetrahydropyran-4-yl]-7-methyl-6-methylsulfonyl-4-[3-(trifluoromethyl)-1-bicyclo[1.1.1]pentanyl]pyrido[2,3-d]pyrimidine]

Continued, compound first:

Row | SMILES | EC50 [nM]
10 | Cc1nc2nc([C@H]3CCO[C@@H](c4cnn(C5CC5)c4)C3)nc(-c3ccc(F)cc3F)c2cc1C(=O)O [Example 9, 4-(2,4-difluorophenyl)-7-methyl-2-[(2R,4S)-2-(1-cyclopropylpyrazol-4-yl)tetrahydropyran-4-yl]pyrido[2,3-d]pyrimidine-6-carboxylic acid] | > 500
11 | Cc1cc(-c2cc3c(-c4ccc(F)cc4F)nc(N4C[C@@H](C)O[C@@H](c5cnn(C6CC6)c5)C4)nc3nc2C)on1 [Example 11, (2S,6R)-2-(1-cyclopropylpyrazol-4-yl)-4-[4-(2,4-difluorophenyl)-7-methyl-6-(3-methylisoxazol-5-yl)pyrido[2,3-d]pyrimidin-2-yl]-6-methyl-morpholine] | < 100
12 | Cc1cnc(-c2cc3c(-c4ccc(F)cc4F)nc(N4C[C@@H](C)O[C@@H](c5cnn(C6CC6)c5)C4)nc3nc2C)o1 [Example 13, (2S,6R)-2-(1-cyclopropylpyrazol-4-yl)-4-[4-(2,4-difluorophenyl)-7-methyl-6-(5-methyloxazol-2-yl)pyrido[2,3-d]pyrimidin-2-yl]-6-methyl-morpholine] | < 100
13 | Cc1nc2nc([C@H]3CCO[C@@H](c4cnn(C5CC5)c4)C3)nc(-c3ccc(F)cc3F)c2cc1C#N [Example 18, 2-[(2R,4S)-2-(1-cyclopropylpyrazol-4-yl)tetrahydropyran-4-yl]-4-(2,4-difluorophenyl)-7-methyl-pyrido[2,3-d]pyrimidine-6-carbonitrile] | < 100
14 | Cc1noc(-c2cc3c(C45CC(C(F)(F)F)(C4)C5)nc(N4C[C@@H](C)O[C@@H](c5cnn(C6CC6)c5)C4)nc3nc2C)n1 [Example 22, (2S,6R)-2-(1-cyclopropyl-pyrazol-4-yl)-6-methyl-4-[7-methyl-6-(3-methyl-1,2,4-oxadiazol-5-yl)-4-[3-(trifluoromethyl)-1-bicyclo[1.1.1]pentanyl]-pyrido[2,3-d]pyrimidin-2-yl]morpholine] | < 100
15 | Cc1nc2nc(N3C[C@@H](C)O[C@@H](c4cnn(C5CC5)c4)C3)nc(C34CC(C(F)(F)F)(C3)C4)c2cc1C#N [Example 25, 2-[(2S,6R)-2-(1-cyclopropylpyrazol-4-yl)-6-methyl-morpholin-4-yl]-7-methyl-4-[3-(trifluoromethyl)-1-bicyclo[1.1.1]pentanyl]pyrido[2,3-d]pyrimidine-6-carbonitrile] | < 100
16 | Cc1nc2nc([C@H]3CCO[C@@H](c4cnn(C5CC5)c4)C3)nc(C34CC(C(F)(F)F)(C3)C4)c2cc1-c1ccn(C)n1 [Example 27, 2-((2R,4S)-2-(1-cyclopropyl-1H-pyrazol-4-yl)tetrahydro-2H-pyran-4-yl)-7-methyl-6-(1-methyl-1H-pyrazol-3-yl)-4-(3-(trifluoromethyl)-bicyclo[1.1.1]pentan-1-yl)pyrido[2,3-d]pyrimidine] | 100 to 500
17 | Cc1nc2nc([C@H]3CCO[C@@H](c4cnn(C5CC5)c4)C3)nc(C34CC(C(F)(F)F)(C3)C4)c2cc1-c1cn(C)nn1 [Example 28, 2-((2R,4S)-2-(1-cyclopropyl-1H-pyrazol-4-yl)tetrahydro-2H-pyran-4-yl)-7-methyl-6-(1-methyl-1H-1,2,3-triazol-4-yl)-4-(3-(trifluoromethyl)-bicyclo[1.1.1]pentan-1-yl)pyrido[2,3-d]pyrimidine] | > 500
18 | Cc1nc2nc([C@H]3CCO[C@@H](c4cnn(C5CC5)c4)C3)nc(C34CC(C(F)(F)F)(C3)C4)c2cc1[S+](C)[O-] (stereo partly drawn) [Example 32, 2-[(2R,4S)-2-(1-cyclopropylpyrazol-4-yl)tetrahydropyran-4-yl]-7-methyl-6-methylsulfinyl-4-[3-(trifluoromethyl)-1-bicyclo[1.1.1]pentanyl]pyrido[2,3-d]pyrimidine] | < 100
